# Measurements from patent US12152038B2, “Vasopressin receptor antagonists and products and methods related thereto” (Neumora Therapeutics, Inc., priority 2017, dated 2024).
# How the values were obtained:
# [1] = target: T1, human Arginine Vasopressin Receptor V2 (AVPR2) (Homo sapiens, UniProt P30518); test: Vasopressin V2 receptor antagonist assay (TR-FRET cAMP, 1321N1 cells); format: cell-based
# T1 construct: host or cells: 1321N1 (cAMPZen V2 assay ready frozen cells)
# Procedure: The purpose of the assay was to determine the inhibitory effect of synthesized compounds on the Vasopressin receptor 2. The assay was performed in commercially available 1321N1 cells expressing the human Arginine Vasopressin Receptor V2 (AVPR2) (Perkin Elmer #ES-363-CF). Arginine Vasopressin (AVP) evokes an increase in intracellular cAMP in these cells which is measured in a TR-FRET assay using a Europium cAMP tracer and ULight labelled antibody reagents contained in a LANCE Ultra cAMP kit (Perkin Elmer #TRF0263). Increases in cAMP in the assay result in a reduction in TR-FRET as the cAMP produced by the stimulated cells competes with the Eu-cAMP tracer for binding sites on the ULight labelled antibody. Test compounds were assessed for their ability to affect the magnitude of the response to AVP, with antagonists showing a concentration-dependent decrease in the AVP-mediated reduction in TR-FRET signal.
# cAMPZen V2 assay ready cells were thawed at 37° C. and resuspended directly from frozen in 9 ml growth medium consisting of DMEM supplemented with 10% v/v fetal bovine serum, 1× non-essential amino acids, and 1 mM sodium pyruvate. Cells were spun at 1000 rpm for 3 minutes and the supernatant was carefully removed and discarded. The pellet was resuspended in 5 ml stimulation buffer and the cell density determined using the Vi-Cell automated cell counter. The cell suspension was diluted to a 0.2×10^6/ml suspension ready for plating. To all wells of a white 384-well Optiplate (Perkin Elmer #6007299) 5 μL of cells in stimulation buffer were dispensed (1,000 cells per well). Stimulation buffer consisted of HBSS (+Ca/+Mg) supplemented with 5 mM HEPES, 0.1% BSA stabiliser and 0.5 mM IBMX.
# At the start of each assay day the potency of AVP was assessed and an EC80 concentration determined for subsequent compound profiling. Assays were performed by first an addition of 2.5 μl of control or test compound at 4× final concentration in stimulation buffer followed by 2.5 μl of AVP at 4× final concentration in stimulation buffer. After a 1 hour reaction, detection reagents were added by first an addition of 5 μl EU-cAMP tracer, followed by 5 μl ULight-anti-cAMP both diluted as per the manufacturer's instructions. After a one hour incubation, plates were ready to be read (signals then remained stable for up to 24 hours). Changes in time resolved fluorescence were monitored with excitation via a laser (337 nm) measuring both 615 nm and 665 nm emission wavelengths. […] For compound profiling, test compounds were dispensed by the Labcyte Echo (10-point curve, 1:3 dilutions) in a target 0.1 μl volume then diluted 750-fold in stimulation buffer containing 3% DMSO prior to addition to the cells. At the end of the incubation period, 2.5 μl of AVP in stimulation buffer was added at the previously determined EC80 concentration.
# In-plate controls for the assay included a Tolvaptan concentration-response curve as the reference V2 antagonist and an AVP concentration-response curve to confirm the reproducibility of the EC80 used for the compound challenge.
# [2] = target: T2, human Arginine Vasopressin Receptor 1a (AVPR1a) (Homo sapiens, UniProt P37288); test: Vasopressin V1a receptor antagonist assay (FLIPR calcium, CHO-AVPR1a cells); format: cell-based
# T2 construct: expressed in transfected cells; host or cells: CHO (CHO-AVPR1a, kept under G418 selection)
# T2 sequence (P37288 whole entry): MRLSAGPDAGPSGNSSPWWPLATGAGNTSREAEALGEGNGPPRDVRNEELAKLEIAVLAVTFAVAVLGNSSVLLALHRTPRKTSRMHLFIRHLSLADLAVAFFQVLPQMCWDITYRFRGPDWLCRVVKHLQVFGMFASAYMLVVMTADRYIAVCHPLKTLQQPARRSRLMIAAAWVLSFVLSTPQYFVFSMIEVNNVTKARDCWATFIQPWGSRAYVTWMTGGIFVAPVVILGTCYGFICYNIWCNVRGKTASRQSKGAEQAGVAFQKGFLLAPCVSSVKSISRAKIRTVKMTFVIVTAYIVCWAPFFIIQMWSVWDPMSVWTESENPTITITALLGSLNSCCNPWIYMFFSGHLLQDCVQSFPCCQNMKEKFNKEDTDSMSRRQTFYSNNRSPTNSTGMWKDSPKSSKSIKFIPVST
# Summary of the method: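 CHO cells expressing human AVPR1a were loaded with Calcium-6 dye and preincubated with compound for 15 min at 37° C. Cells were then challenged with AVP at its daily-determined EC80, and FLIPR fluorescence was read. Compounds were tested in duplicate as 10-point 1:3 dilutions from a top final concentration of 3 μM.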
# T1 sequence (P30518 whole entry): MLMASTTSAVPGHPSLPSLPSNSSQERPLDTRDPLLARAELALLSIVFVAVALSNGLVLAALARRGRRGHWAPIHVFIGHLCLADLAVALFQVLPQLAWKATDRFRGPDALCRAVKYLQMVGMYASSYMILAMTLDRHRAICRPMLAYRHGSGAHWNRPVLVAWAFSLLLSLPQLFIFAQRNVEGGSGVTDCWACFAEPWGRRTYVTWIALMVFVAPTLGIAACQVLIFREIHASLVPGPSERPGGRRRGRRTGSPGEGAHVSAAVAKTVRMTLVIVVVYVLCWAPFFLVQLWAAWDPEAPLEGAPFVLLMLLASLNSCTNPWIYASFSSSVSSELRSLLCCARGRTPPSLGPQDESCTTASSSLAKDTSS
Structure (SMILES),IC50 [1] [nM],IC50 [2] [nM]
"Cc1cncc(N2CC3(CN(C(=O)N4c5ccc(F)cc5OCC4C)C3)C2)n1 (single isomer, unassigned) [20-2-A]",≥ 1000,500 to 1000
"Cc1cncc(N2CC3(CN(C(=O)N4c5ccc(F)cc5OCC4C)C3)C2)n1 (single isomer, unassigned) [20-2-B]",< 100,< 100
"CC1COc2cc(F)ccc2N1C(=O)N1CC2(C1)CN(c1cc(C#N)ccn1)C2 (single isomer, unassigned) [20-3-B]",100 to 500,< 100
"Cc1ccnc(N2CC3(CN(C(=O)N4c5ccc(F)cc5OCC4C)C3)C2)c1 (single isomer, unassigned) [20-4-B]",< 100,< 100
"Cc1cnc(N2CC3(CN(C(=O)N4c5ccc(Cl)cc5OCC4C)C3)C2)cn1 (single isomer, unassigned) [20-5-B]",< 100,< 100
"CC1COc2cc(Cl)ccc2N1C(=O)N1CC2(C1)CN(c1cc(C#N)ccn1)C2 (single isomer, unassigned) [20-6-B]",< 100,< 100
"Cc1nc(N2CC3(CN(C(=O)N4c5ccc(Cl)cc5OCC4C)C3)C2)ncc1F (single isomer, unassigned) [20-7-B]",< 100,< 100
"COc1ccnc(N2CC3(CN(C(=O)N4c5ccc(Cl)cc5OCC4C)C3)C2)c1 (single isomer, unassigned) [20-8-B]",< 100,< 100
"COc1ccnc(N2CC3(CN(C(=O)N4c5ccc(Cl)cc5OCC4C)C3)C2)n1 (single isomer, unassigned) [20-9-B]",100 to 500,< 100
"Cc1nccnc1N1CC2(CN(C(=O)N3c4ccc(Cl)cc4OCC3C)C2)C1 (single isomer, unassigned) [20-10-A]",100 to 500,< 100
"Cc1ccnc(N2CC3(CN(C(=O)N4c5ccc(Cl)cc5OCC4C)C3)C2)n1 (single isomer, unassigned) [20-12-B]",< 100,< 100
O=C(N1CC2(C1)CN(c1ncccn1)C2)N1CCOc2cc(Cl)ccc21 [1-4],≥ 1000,< 100
Cc1cccnc1N1CC2(CN(C(=O)N3CCOc4cc(Cl)ccc43)C2)C1 [1-5],≥ 1000,< 100
Cc1ccnc(N2CC3(CN(C(=O)N4CCOc5cc(Cl)ccc54)C3)C2)c1 [1-14],≥ 1000,< 100
COc1ccnc(N2CC3(CN(C(=O)N4CCOc5cc(Cl)ccc54)C3)C2)c1 [1-15],≥ 1000,< 100
O=C(N1CC2(C1)CN(c1ncccc1F)C2)N1CCc2cc(Cl)ccc21 [1-76],≥ 1000,< 100
O=C(N1CC2(C1)CN(c1ccccn1)C2)N1CCc2cc(Cl)ccc21 [1-77],≥ 1000,< 100
O=C(N1CC2(C1)CN(c1cccc(F)n1)C2)N1CCc2cc(Cl)ccc21 [1-78],≥ 1000,< 100
O=C(N1CC2(C1)CN(c1cc(F)ccn1)C2)N1CCc2cc(Cl)ccc21 [1-79],≥ 1000,< 100
O=C(N1CC2(C1)CN(c1cccnn1)C2)N1CCOc2cc(Cl)c(F)cc21 [1-81],≥ 1000,< 100
"O=C(N1CC2(C1)CN(c1noc3ccccc13)C2)N1CCOc2cc(Cl)ccc21 [4-1, (6-(benzo[d]isoxazol-3-yl)-2,6-diazaspiro[3.3]heptan-2-yl)(7-chloro-2,3-dihydro-4H-benzo[b][1,4]oxazin-4-yl)methanone]",≥ 1000,< 100
O=C(N1CC2(C1)CN(c1ncc(F)cn1)C2)N1CCOc2cc(Cl)ccc21 [4-2],≥ 1000,< 100
CC1COc2cc(F)ccc2N1C(=O)N1CC2(C1)CN(c1noc3ccccc13)C2 (centres unmarked) [4-3],≥ 1000,< 100
"Cc1nc(N2CC3(CN(C(=O)N4CCOc5cc(Cl)ccc54)C3)C2)ncc1F [6-1, (7-chloro-2,3-dihydro-4H-benzo[b][1,4]oxazin-4-yl)(6-(5-fluoro-4-methylpyrimidin-2-yl)-2,6-diazaspiro[3.3]heptan-2-yl)methanone]",≥ 1000,< 100

# Results, then the compound that gave them:
IC50 [1] [nM],IC50 [2] [nM],Structure (SMILES)
≥ 1000,< 100,O=C(N1CC2(C1)CN(c1ccccn1)C2)N1CCOc2cc(Cl)ccc21 [8-2]
≥ 1000,< 100,O=C(N1CC2(C1)CN(c1cnccn1)C2)N1CCOc2cc(Cl)ccc21 [8-3]
≥ 1000,< 100,O=C(N1CC2(C1)CN(c1ccc(F)cn1)C2)N1CCc2cc(Cl)ccc21 [8-11]
≥ 1000,< 100,O=C(N1CC2(C1)CN(c1ccccn1)C2)N1CCOCc2cc(Cl)ccc21 [8-12]
≥ 1000,< 100,O=C(N1CC2(C1)CN(c1cnccn1)C2)N1CCOCc2cc(Cl)ccc21 [8-13]
≥ 1000,< 100,O=C(N1CC2(C1)CN(c1cnccn1)C2)N1CCc2cc(Cl)ccc21 [8-14]
< 100,< 100,CC1Cc2cc(Cl)ccc2N1C(=O)N1CC2(C1)CN(c1ccc(F)cn1)C2 (centres unmarked) [8-16]
≥ 1000,< 100,"CC1COc2cc(Cl)ccc2N1C(=O)N1CC2(C1)CN(c1cccnn1)C2 (centres unmarked) [9-1, (7-chloro-3-methyl-2,3-dihydro-4H-benzo[b][1,4]oxazin-4-yl)(6-(pyridazin-3-yl)-2,6-diazaspiro[3.3]heptan-2-yl)methanone]"
≥ 1000,< 100,COc1ccc2c(c1)OCCN2C(=O)N1CC2(C1)CN(c1ccc(F)cn1)C2 [9-2]
≥ 1000,< 100,CC1CN(C(=O)N2CC3(C2)CN(c2ccc(F)cn2)C3)c2ccc(Cl)cc2O1 (centres unmarked) [9-3]
≥ 1000,< 100,O=C(N1CC2(C1)CN(c1ccc(F)cn1)C2)N1CCOc2cc(F)c(F)cc21 [9-6]
≥ 1000,< 100,O=C(N1CC2(C1)CN(c1ccc(F)cn1)C2)N1CCOc2cc(Cl)ccc21 [9-7]
< 100,< 100,"CCC1COc2cc(Cl)ccc2N1C(=O)N1CC2(C1)CN(c1ccccn1)C2 (centres unmarked) [11-1, (7-chloro-3-ethyl-2,3-dihydro-4H-benzo[b][1,4]oxazin-4-yl)(6-(pyridin-2-yl)-2,6-diazaspiro[3.3]heptan-2-yl)methanone]"
100 to 500,< 100,"CC1COc2cc(F)ccc2N1C(=O)N1CC2(C1)CN(c1ccc(F)cn1)C2 (centres unmarked) [12-1, (7-fluoro-3-methyl-2,3-dihydro-4H-benzo[b][1,4]oxazin-4-yl)(6-(5-fluoropyridin-2-yl)-2,6-diazaspiro[3.3]heptan-2-yl)methanone]"
≥ 1000,< 100,O=C(N1CC2(C1)CN(c1cnccn1)C2)N1CCC(O)c2cc(Cl)ccc21 (centres unmarked) [13-3]
≥ 1000,< 100,"O=C(N1CC2(C1)CN(c1ccc(F)cn1)C2)N1CCC(F)c2cc(Cl)ccc21 (centres unmarked) [14-1, (6-chloro-4-fluoro-3,4-dihydroquinolin-1(2H)-yl)(6-(5-fluoropyridin-2-yl)-2,6-diazaspiro[3.3]heptan-2-yl)methanone]"
≥ 1000,< 100,"O=C(N1CC2(C1)CN(c1ccc(F)cn1)C2)N1CCC(F)(F)c2cc(Cl)ccc21 [17-1, (6-chloro-4,4-difluoro-3,4-dihydroquinolin-1(2H)-yl)(6-(5-fluoropyridin-2-yl)-2,6-diazaspiro[3.3]heptan-2-yl)methanone]"
≥ 1000,< 100,"CC1COc2cc(F)ccc2N1C(=O)N1CC2(C1)CN(c1ncccn1)C2 (centres unmarked) [18-1, (7-fluoro-3-methyl-2,3-dihydro-4H-benzo[b][1,4]oxazin-4-yl)(6-(pyrimidin-2-yl)-2,6-diazaspiro[3.3]heptan-2-yl)methanone]"
100 to 500,< 100,CC1COc2cc(Cl)ccc2N1C(=O)N1CC2(C1)CN(c1noc3cccnc13)C2 (centres unmarked) [18-3]
